In patent publication US20060147564A1, “Composition for preventing or treating allergic disease using black rice extract and its therapeutic use” (CELLMICS CO. LTD, priority 2003, published 2006):

Tests used:
[1] = system: mice with asthma induced by ovalbumin; assay: Accumulation of eosinophiles in airway (BALF cell count) of mice with asthma induced by ovalbumin (Example 5); format: in vivo, mice (Balb/c); settings: 2nd to 23rd day, negative control 62.7 ± 4.3, n=5
Procedure: (§1) In order to prepare animal models with asthma, 0.5 ml of ovalbumin solution (500 μg of ovalbumin and 10 mg of alumina gel were dissolved in 1 ml of PBS) was injected into abdominal cavities of twenty 5-week old female mice(Balb/c, Orient, Seoul) on first and 10th experiment day. The ovalbumin solution was sprayed on each mouse on the 21st, the 22nd and the 23rd day to induce asthma.
(§2) Mice (n=15) with asthma induced by ovalbumin were divided into three groups; one was used as a negative control treated with nothing and two other groups were used as experimental groups each treated with cyanidin glycoside by 1.5 mg/kg and 4.5 mg/kg, respectively. Cyanidin glycoside was orally administered once a day in succession from the 2nd day to the 23rd day.
24 hours after final sensitization, each mouse was sacrificed using ether and a microtube was connected into trachea. 0.8 ml of PBS was injected and recovered through the microtube, which was repeated twice. The obtained bronchoalveolar lavage fluid (BALF) was centrifuged to separate cells in airway lumen and various proteins secreted from the cells and lung.
The separated cells were fixed on a slide using cytospin and stained with Diff-Quick staining solution. Photographs were taken by a digital camera attached on Carzeiss microscope (model: AXIOVERT 25-CEL). 5 random regions per each sample were picked to count eosinophiles, and the percentage of eosinophiles in each sample was represented in Table 1.

[2] = system: mice with asthma induced by ovalbumin; assay: Inflammation in lung of mice with asthma induced by ovalbumin (microphotographs, Example 5); format: in vivo, mice (Balb/c); settings: 1.5 mg/kg and 4.5 mg/kg orally once a day; FIG. 4C and 4D
Procedure: as §1, §2
Precisely, as cyanidin glycoside concentration increased, the percentage of eosinophiles in airway decreased to 49% and 38% each; compared with a negative control. […] Inflammation in lung cells of the sacrificed mice was also investigated and the result was represented in FIG. 4.

[3] = system: mice with asthma induced by ovalbumin; assay: Inflammation in lung of mice with asthma induced by ovalbumin (microphotographs, Examples 2 and 4); format: in vivo, mice (C57BL/6); settings: intraperitoneal injection twice
Procedure: At first, in order to prepare animal models of asthma, 200 μl of ovalbumin solution (ovalbumin 200 μg and alumina gel 1000 μg were dissolved in physiological saline) was injected in each abdominal cavity of twenty 10-week old female mice (C57BL/6, Damul Science, Daejeon, Korea). Two weeks later, 200 μl of ovalbumin solution(2% w/v) was sprayed on each mouse to sensitize it. 200 μl of 1% ovalbumin solution was sprayed again on the 21st, the 22nd and the 23rd day, and 10% ovalbumin solution was sprayed again on the 25th day to sensitize.
The above mice with asthma induced by sensitizing with 10% ovalbumin were divided into two groups; one was used as a negative control group treated with nothing and the other was treated with 10 mg/kg of black rice extract. Black rice extract was administered by intraperitoneal injection and the injection was performed twice on the 24th and the 25th day from the treatment of ovalbumin.
48 hours after the treatment of black rice extract, mice were sacrificed using ether. Inflammation in lung of each mouse was investigated. […] Therefore, it was confirmed that black rice extract could inhibit asthma effectively. […]

[4] = system: mice with asthma induced by ovalbumin; assay: Accumulation of eosinophiles in airway (BALF cell count) of mice with asthma induced by ovalbumin (Example 3); format: in vivo, mice (C57BL/6); settings: FIG. 2; for percentage of eosinophiles in airway: intraperitoneal injection twice, ovalbumin-exposed mice 58%
Procedure: At first, in order to prepare animal models of asthma, 200 μl of ovalbumin solution (ovalbumin 200 μg and alumina gel 1000 μg were dissolved in physiological saline) was injected in each abdominal cavity of twenty 10-week old female mice (C57BL/6, Damul Science, Daejeon, Korea). Two weeks later, 200 μl of ovalbumin solution(2% w/v) was sprayed on each mouse to sensitize it. 200 μl of 1% ovalbumin solution was sprayed again on the 21st, the 22nd and the 23rd day, and 10% ovalbumin solution was sprayed again on the 25th day to sensitize. […] Each compound was administered by intraperitoneal injection and the injection was performed twice on the 24th and the 25th day from the treatment of ovalbumin. On the second day from the treatment, each mouse was sacrificed using ether. Then, a microtube was connected to trachea. PBS (phosphate-buffered saline, 0.8 ml) was injected and recovered through the microtube, which was repeated twice, resulting in the obtainment of bronchoalveolar lavage fluid (BALF). The fluid was centrifuged to separate cells in airway lumen and various proteins secreted from the cells and lung. The separated cells were fixed on a slide using cytospin and stained with Diff-Quick staining solution. Photographs were taken by a digital camera attached on Carzeiss microscope (model: […]). 5 random regions per each sample were picked to count eosinophiles, and the percentage of eosinophiles in each sample was shown in FIG. 2.

OC[C@H]1O[C@@H](Oc2cc3c(O)cc(O)cc3[o+]c2-c2ccc(O)c(O)c2)[C@H](O)[C@@H](O)[C@@H]1O [Cyanidin glycoside, cyanidin 3-O-β-glucopyranoside] showed a Percentage of eosinophiles ([1]; 1.5 mg/kg orally once a day) of 49.5 ± 5.8 %, a Percentage of eosinophiles ([1]; 1.5 mg/kg orally once a day, listed as cyanidin glycoside) of 49% and a Percentage of eosinophiles ([1]; 4.5 mg/kg orally once a day) of 38.2 ± 6.2 %. For the same compound, the Percentage of eosinophiles ([1]; 4.5 mg/kg orally once a day, listed as cyanidin glycoside) was 38% and the inflammation in bronchi [2] was “remarkably reduced”.
For Oc1ccc(-c2[o+]c3cc(O)cc(O)c3cc2O)cc1.[Cl-] [pelargonidin, 3,5,7-trihydroxy-2-(4-hydroxyphenyl)-1-benzopyrylium chloride], the inflammation-inhibiting effect ([3]; 0.5 mg/kg, data not shown) was “outstanding”, the inflammation in bronchi ([3]; 1.25 mg/kg, 48 hours after treatment, FIG. 3) was “remarkably reduced” and the “accumulation of eosinophiles in airway” value ([4]; 0.5 mg/kg and 1.25 mg/kg, intraperitoneal injection) was “inhibited”. For the same compound, the “percentage of eosinophiles in airway” value ([4]; 0.5 mg/kg) was 30% and the “percentage of eosinophiles in airway” value ([4]; 1.25 mg/kg) was 20%.
